This test deals with Aldo-keto reductase family 1 member B1 (Homo sapiens, UniProt P15121). Description: IC50 Activity Assays. Particulars: pH 7; 25 °C. How it is done:
The final reaction volume was 500uL per reaction. All compounds were dissolved in dimethyl sulphoxide, and the corresponding solution was added to the cell and incubated for 5 min at 25 degrees Celsius prior to the addition of the substrate. The reaction was initiated by the addition of 1mM glyceraldehyde, and the decrease in optical density at 340nm was monitored for 3 min at 25 degrees Celsius in a UV-vis spectrophotometer.
The term IC50 denotes the concentration needed to halve the response being measured. A lower IC50 goes with inhibition by little substance. `O=C(O)COc1cc(Cl)ccc1C(=O)NCc1c(F)cc(Br)cc1F` [MK408] registered an IC50 of 1190 nM.
In the case of `O=C(O)COc1cc(Cl)ccc1C(=O)NCc1ccc(Br)cc1F` [IDD388] it was 400 nM; in that of `O=C(O)COc1cc(Cl)ccc1C(=O)NCc1ccc(Br)cc1` [MK181], 710 nM; in that of `O=C(O)COc1cc(Cl)ccc1C(=O)NCc1c(F)c(F)c(Br)c(F)c1F` [MK319], 300 nM.
In the case of `O=C(O)COc1cc(Cl)ccc1C(=O)NCc1c(F)cc(I)cc1F` [MK409] it was 1360 nM; in that of `O=C(O)COc1cc(Cl)ccc1C(=O)NCc1ccc(I)cc1` [MK257], 1900 nM.
In the case of `O=C(O)COc1cc(Cl)ccc1C(=O)NCc1ccc(I)cc1F` [MK315] it was 190 nM.

The record behind these values is BindingDB's records for doi:10.1021/cb400526n (Academy of Sciences of The Czech Republic, 2013).
